Results taken from ChEMBL document CHEMBL4257228, “Glucagon-like-peptide-2 (glp-2) analogues” (2016).
The source made the active and inactive calls. The rule behind the calls is not given here. Non-standard residues stand in square brackets, D forms with d. Residues, ends and D or L forms follow the SMILES beside them. Aib = CC(C)(N)C(=O)O

Tests used:
[1] = target: T1, Glucagon-like peptide 2 receptor (Homo sapiens, UniProt O95838); experiment: Agonist activity at human GLP2 receptor expressed in HEK293 cells assessed as increase in intracellular cAMP accumulation by AlphaScreen assay; format: functional, cell-based
T1 sequence (O95838 whole entry): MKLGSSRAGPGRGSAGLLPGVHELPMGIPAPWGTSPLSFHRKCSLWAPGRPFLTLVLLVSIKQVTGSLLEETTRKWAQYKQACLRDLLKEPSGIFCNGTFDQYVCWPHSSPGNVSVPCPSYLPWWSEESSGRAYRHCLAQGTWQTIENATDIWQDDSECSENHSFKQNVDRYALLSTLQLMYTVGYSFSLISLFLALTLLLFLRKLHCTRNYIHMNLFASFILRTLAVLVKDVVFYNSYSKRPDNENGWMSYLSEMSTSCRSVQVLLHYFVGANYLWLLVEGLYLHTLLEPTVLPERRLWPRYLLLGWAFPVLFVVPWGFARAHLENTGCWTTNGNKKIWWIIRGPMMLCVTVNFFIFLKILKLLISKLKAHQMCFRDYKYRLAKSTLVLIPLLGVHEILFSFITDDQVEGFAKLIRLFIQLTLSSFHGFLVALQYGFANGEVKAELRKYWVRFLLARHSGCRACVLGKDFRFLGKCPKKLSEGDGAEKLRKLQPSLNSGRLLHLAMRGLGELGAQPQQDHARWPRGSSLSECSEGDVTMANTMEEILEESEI

[2] = system: Mus musculus; experiment: Antidiabetic activity in C57BL/6J mouse assessed as reduction in blood glucose level at 1000 nmol/kg, sc administered as single dose 1 hr prior to glucose challenge measured up to 120 mins post glucose challenge by OGTT; format: functional, organism-based
[3] = system: Rattus norvegicus; experiment: In vivo agonist activity at GLP2R in Wistar rat assessed as increase in small intestinal wet weight administered sc once daily for 4 days measured on day 5; format: functional, organism-based
[4] = system: Mus musculus; experiment: In vivo agonist activity at GLP2R in diet-induced obese C57BL/6J mouse assessed as increase in small intestinal wet weight at 250 to 500 nmol/kg, sc bid for 14 days; format: functional, organism-based
[5] = system: Mus musculus; experiment: In vivo agonist activity at GLP2R in diet-induced obese C57BL/6J mouse assessed as increase in large intestinal wet weight at 250 to 500 nmol/kg, sc bid for 14 days; format: functional, organism-based
[6] = system: Mus musculus; experiment: Antidiabetic activity in diet-induced obese C57BL/6J mouse assessed as decrease in fasting blood glucose level at 250 to 500 nmol/kg, sc bid for 14 days fasted overnight on day 11 to 12 and measured on day 14; format: functional, organism-based
[7] = system: Mus musculus; experiment: Antidiabetic activity in diet-induced obese C57BL/6J mouse assessed as decrease in plasma insulin level at 250 to 500 nmol/kg, sc bid for 14 days fasted overnight on day 11 to 12 and measured on day 14; format: functional, organism-based
[8] = system: Mus musculus; experiment: Antidiabetic activity in diet-induced obese C57BL/6J mouse assessed as decrease in insulin resistance by measuring lower HOMA-IR index at 250 to 500 nmol/kg, sc bid for 14 days fasted overnight on day 11 to 12 and measured on day 14; format: functional, organism-based

`CC[C@H](C)[C@H](NC(=O)[C@H](Cc1ccccc1)NC(=O)[C@H](CC(=O)O)NC(=O)[C@H](CCCNC(=N)N)NC(=O)[C@H](C)NC(=O)[C@H](C)NC(=O)[C@H](CCC(N)=O)NC(=O)[C@H](CC(N)=O)NC(=O)[C@H](CC(=O)O)NC(=O)[C@H](CC(C)C)NC(=O)[C@@H](NC(=O)[C@@H](NC(=O)[C@H](CC(N)=O)NC(=O)[C@H](CCSC)NC(=O)[C@H](CCC(=O)O)NC(=O)[C@H](CC(=O)O)NC(=O)[C@H](CO)NC(=O)[C@H](Cc1ccccc1)NC(=O)[C@H](CO)NC(=O)CNC(=O)[C@H](CC(=O)O)NC(=O)C(C)(C)N)[C@@H](C)O)[C@@H](C)CC)C(=O)N[C@@H](CC(N)=O)C(=O)N[C@@H](Cc1c[nH]c2ccccc12)C(=O)N[C@@H](CC(C)C)C(=O)N[C@H](C(=O)N[C@@H](CCC(N)=O)C(=O)N[C@H](C(=O)N[C@@H](CCCCN)C(=O)N[C@H](C(=O)N[C@H](C(=O)N[C@@H](CC(=O)O)C(=O)O)[C@@H](C)O)[C@@H](C)CC)[C@@H](C)O)[C@@H](C)CC` (H-[Aib]DGSFSDEMNTILDNQAARDFINWLIQTKITD-OH) was tested, and the EC50 [1] was 0.12 nM.
For H-HGDGSFSDEMNTILDGQAARDFINWLIQTK-NH2, the Activity [2] was “Active”.
In the case of H-HGDGSFSSELATILDGKAARDFINWLIQTKITD-OH, the Activity [3] is reported as “Dose-dependent effect”, the Activity [4] is reported as “Active” and the Activity [5] is reported as “Active”. The Activity [6] was “Active”, the Activity [7] was “Active” and the Activity [8] was “Active”.
